Data set [1] has as its target T1, Mushroom tyrosinase (Agaricus bisporus, UniProt O42713+Q00024+C7FF04+C7FF05). The data set is described as follows: Inhibition of mushroom tyrosinase using L-DOPA as substrate assessed as decrease in dopachrome formation preincubated for 10 mins followed by substrate addition by spectrophotometric method.
Data set [2] addresses T2, Tyrosinase (Mus musculus) (UniProt P11344).
T2 sequence (whole entry): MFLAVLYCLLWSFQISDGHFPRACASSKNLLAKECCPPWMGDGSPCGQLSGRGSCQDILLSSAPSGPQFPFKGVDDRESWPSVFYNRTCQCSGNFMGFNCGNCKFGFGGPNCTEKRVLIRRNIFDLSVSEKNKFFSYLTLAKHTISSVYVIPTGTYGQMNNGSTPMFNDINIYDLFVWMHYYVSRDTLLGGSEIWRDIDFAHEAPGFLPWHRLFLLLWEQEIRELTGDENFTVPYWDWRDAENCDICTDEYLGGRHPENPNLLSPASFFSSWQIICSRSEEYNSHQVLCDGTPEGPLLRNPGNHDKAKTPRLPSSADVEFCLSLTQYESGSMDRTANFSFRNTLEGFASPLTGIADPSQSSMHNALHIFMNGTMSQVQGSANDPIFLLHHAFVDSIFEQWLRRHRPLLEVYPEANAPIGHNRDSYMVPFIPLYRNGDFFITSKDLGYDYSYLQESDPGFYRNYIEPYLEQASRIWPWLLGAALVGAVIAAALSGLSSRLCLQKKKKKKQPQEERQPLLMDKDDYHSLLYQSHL
Nature of the data set: Inhibition of tyrosinase in alpha-MSH-stimulated mouse B16F10 cells assessed as decrease in melanin content after 48 hrs.

Data set [3] addresses T2, Tyrosinase (Mus musculus). Nature of the data set: Inhibition of tyrosinase in alpha-MSH-stimulated mouse B16F10 cells assessed as decrease in melanin content at 10 to 50 uM after 48 hrs.
Data set [4] concerns the target T2, Tyrosinase (Mus musculus). Nature of the data set: Inhibition of tyrosinase in alpha-MSH-stimulated mouse B16F10 cells preincubated for 48 hrs followed by L-DOPA addition.
For data set [5], the target named is T2, Tyrosinase (Mus musculus). Nature of the data set: Inhibition of tyrosinase in alpha-MSH-stimulated mouse B16F10 cells at 25 uM preincubated for 48 hrs followed by L-DOPA addition relative to control.
In data set [6] the target is T2, Tyrosinase (Mus musculus). Nature of the data set: Inhibition of tyrosinase in alpha-MSH-stimulated mouse B16F10 cells at 10 to 50 uM preincubated for 48 hrs followed by L-DOPA addition and subsequent incubation in dark measured after 1 hr by zymographic method.
Data set [7] concerns the target T2, Tyrosinase (Mus musculus). Nature of the data set: Inhibition of tyrosinase in alpha-MSH-stimulated mouse B16F10 cells at 10 uM preincubated for 48 hrs followed by L-DOPA addition relative to control.
Data set [8] addresses T2, Tyrosinase (Mus musculus). Nature of the data set: Inhibition of tyrosinase in alpha-MSH-stimulated mouse B16F10 cells up to 50 uM preincubated for 48 hrs followed by L-DOPA addition.
For data set [9], the target named is T2, Tyrosinase (Mus musculus). Nature of the data set: Inhibition of tyrosinase in alpha-MSH-stimulated mouse B16F10 cells assessed as decrease in melanin content up to 50 uM after 48 hrs.
Data set [10] has as its target T3, Mushroom tyrosinase (Agaricus bisporus) (UniProt O42713+Q00024+C7FF04+C7FF05). Nature of the data set: Uncompetitive inhibition of mushroom tyrosinase using 0.3 to 1 mM L-DOPA as substrate assessed as decrease in dopachrome formation preincubated for 10 mins followed by substrate addition by Lineweaver-Burk plot analysis.
Data set [11] deals with T3, Mushroom tyrosinase (Agaricus bisporus). The data set is described as follows: Potency index, ratio of kojic acid IC50 to test compound IC50 for mushroom tyrosinase.
Data set [12] has as its target T2, Tyrosinase (Mus musculus). The data set is described as follows: Inhibition of tyrosinase in alpha-MSH-stimulated mouse B16F10 cells assessed as residual activity at 50 uM preincubated for 48 hrs followed by L-DOPA addition relative to control.
Data set [13] deals with B16-F10. The data set is described as follows: Cytotoxicity against mouse B16F10 cells assessed as decrease in cell viability at <50 uM after 48 hrs by MTT assay. The data set is classed as cell-based. Particulars: b16-f10, 48 h.
Data set [14] has as its system B16-F10. Nature of the data set: Cytotoxicity against mouse B16F10 cells assessed as decrease in cell viability at >50 uM after 48 hrs by MTT assay. The settings on record: b16-f10, 48 h. The data set is classed as cell-based.
Data set [15] addresses T2, Tyrosinase (Mus musculus). The data set is described as follows: Inhibition of tyrosinase in alpha-MSH-stimulated mouse B16F10 cells assessed as residual activity at 10 uM preincubated for 48 hrs followed by L-DOPA addition relative to control.
Data set [16] addresses T2, Tyrosinase (Mus musculus). Nature of the data set: Inhibition of tyrosinase in alpha-MSH-stimulated mouse B16F10 cells assessed as residual activity at 25 uM preincubated for 48 hrs followed by L-DOPA addition relative to control.
Data set [17] deals with T1, Mushroom tyrosinase. The data set is described as follows: Competitive inhibition of mushroom tyrosinase using 0.3 to 1 mM L-DOPA as substrate assessed as decrease in dopachrome formation preincubated for 10 mins followed by substrate addition by Lineweaver-Burk plot analysis.

The source made the active and inactive calls. The rule behind the calls is not given here. Where only a bound is given, the exact number is not on record here.

In the case of `O=c1oc2ccc(O)cc2cc1-c1cccs1`, on Mushroom tyrosinase [1], the IC50 was more than 1000 µM.

As for `O=c1oc2c(O)c(O)ccc2cc1-c1cc(Br)cs1`, the IC50 on Mushroom tyrosinase [1] turned out to be 259.03 µM.

In the case of `COc1ccc2oc(=O)c(-c3cccs3)cc2c1`, on Mushroom tyrosinase [1], the half-inhibitory concentration (IC50) is more than 1000 µM.

`O=c1oc2cc(O)cc(O)c2cc1-c1ccc(Br)cc1`: the inhibition entry was “Dose-dependent effect” in data set [2], “Dose-dependent effect” in data set [4], 51.8% in data set [5] and 18.1% in data set [7]. The inhibition entry in data set [3] and in data set [6] was “Active” each time. Further, the IC50 at Mushroom tyrosinase [1] came out at 1.05 µM.

Regarding `O=c1oc2cc(O)ccc2cc1-c1cccs1`, on Mushroom tyrosinase [1], the IC50 was more than 1000 µM.

With `O=c1oc2cc(O)cc(O)c2cc1-c1ccsc1`, the inhibition entry in data set [8] and in [9] was “inactive” throughout. Also, at Mushroom tyrosinase [1], the concentration for half-maximal inhibition (IC50) was 0.19 µM.

With `O=c1oc2cc(O)cc(O)c2cc1-c1ccccc1`, the IC50 on Mushroom tyrosinase [1] was 408.37 µM.

On to `O=c1oc2cc(O)cc(O)c2cc1-c1cc(Br)cs1`, for which the inhibition entry in [2] and in data set [4] was “Dose-dependent effect” in each case. In addition, in data set [10], the Kis stood at 0.128 µM. Moreover, the Ratio IC50 in data set [11] was 50. For the same compound, the inhibition result in data set [3] is “Active”. Besides, the Activity in [12] is 27.7%; with B16-F10 [13], “Non-Toxic”; in the data set with B16-F10 [14], “Toxic”; in data set [15], 94.3%; in data set [16], 78.5%. Also, at Mushroom tyrosinase [1], the IC50 came out at 0.38 µM.

Turning to `O=c1oc2c(O)cccc2cc1-c1cc(Br)cs1`, the IC50 at Mushroom tyrosinase [1] was more than 1000 µM.

On to `O=c1oc2cc(O)cc(O)c2cc1-c1cccs1`, for which the inhibition result in [8] and in data set [9] was “inactive” in each case. Also, the Ratio IC50 in data set [11] worked out at 120. Further, the values for the Activity entry with B16-F10 [13] and in the data set with B16-F10 [14] were “Non-Toxic” and “Toxic”, respectively. The inhibition constant (Ki) on Mushroom tyrosinase [17] amounted to 0.24 µM. Moreover, on Mushroom tyrosinase [1], the IC50 was determined as 0.15 µM.

Take `O=c1oc2cc(O)ccc2cc1-c1cc(Br)cs1`: the IC50 at Mushroom tyrosinase [1] worked out at 31.8 µM.

As for `COc1ccc2oc(=O)c(-c3cc(Br)cs3)cc2c1`, the IC50 on Mushroom tyrosinase [1] is more than 1000 µM.

Source of the values: ChEMBL document CHEMBL4000253 (Bioorg Med Chem, 2017).
